{"source": "patent US20170095573A1", "about": "“METHODS AND COMPOSITIONS FOR TREATING ALLERGY AND INFLAMMATORY DISEASES” (Baylor Research Institute, priority 2014, published 2017)", "key": {"[1]": {"system": "naïve CD4+ T cells co-cultured with TSLP-activated mDCs", "assay": "TSLP-activated mDC-induced CD4+ T cell responses (co-culture with naive CD4+ T cells, cytokine staining / supernatant)", "type": "cell-based, human", "details": "20 ug/ml, naïve CD4+ T cells 7 days, PMA/ionomycin 6 h, intracellular staining", "description": "(FIG. 10A) Intracellular cytokine levels were analyzed by intracellular staining in cells stimulated with PMA/Ionomycin for 6 hours and with brefeldinA for 4 hrs. (FIG. 10B) Cell supernatant cytokine levels were measured by stimulating the cells with αCD3/CD28 beads for 48 hrs.\nIt was next tested whether anti-Dectin-1-Pam3 conjugate can indeed suppress TSLP-activated mDC-induced Th2 type T cell responses. 5×10^3 mDCs were cultured overnight with TSLP in the presence or absence of the same concentration (20 ug/ml) of anti-Dectin-1-Pam3 conjugate, combination of anti-Dectin-1 and Pam3, or Pam 3. 2×10^5 purified naïve CD4+ T cells were then added into the culture. After 7 days, T cells were stimulated for 6 h with PMA/ionomycin in the presence of brefeldin A. Cells were then stained for intracellular expression of IL-13 (Th2 type cytokine) and IFNγ (Th2 type cytokine).\nNext, the Th2-type T cells were tested. mDCs were first primed with 40 ng/mL TSLP and either αdectin-1 or αDectin-1-pam3 at 20 ug/mL After 24 hrs, naïve CD4+ T cells are added to the mDCs and cultured for an additional 6 days. Intracellular cytokine levels were analyzed by intracellular staining in cells stimulated with PMA/Ionomycin for 6 hours and with brefeldinA for 4 hrs (FIG. 10A). Cell supernatant cytokine levels were measured by stimulating the cells with αCD3/CD28 beads for 48 hrs (FIG. 10B)."}, "[2]": {"system": "dendritic cells and CD4+ T cells; allergic patient PBMCs", "assay": "Th2 responses after curdlan activation of DCs / allergic patient PBMCs", "type": "cell-based, human"}}, "data": [{"compound": "CCCCCCCCCCCCCCCC(=O)N[C@@H](CSCC(COC(=O)CCCCCCCCCCCCCCC)OC(=O)CCCCCCCCCCCCCCC)C(=O)N[C@@H](CO)C(=O)N[C@@H](CCCCN)C(=O)N[C@@H](CCCCN)C(=O)N[C@@H](CCCCN)C(=O)N[C@@H](CCCCN)C(=O)O", "note": "(mixture of isomers) [Pam3, N-Palmitoyl-S-[2,3-bis(palmitoyloxy)-(2RS)-propyl]-[R]-cysteinyl-[S]-seryl-[S]-lysyl-[S]-lysyl-[S]-lysyl-[S]-lysine]", "values": [{"measurement": "IL-13+CD4+ T cell responses", "setting": "[1]", "value": 3.47, "unit": "%"}]}, {"compound": "curdlan", "values": [{"measurement": "Antigen-specific TH2 responses", "setting": "[2]; Flu HA1 antigen, DCs and CD4+ T cells, restimulation with HA-1-derived peptides", "value": "decreased antigen-specific TH2 responses"}, {"measurement": "Th2-type T cell responses", "setting": "[2]; allergic patient PBMCs", "value": "significantly down-regulated Th2-type T cell responses"}, {"measurement": "Percentage of IL-13+ cells", "setting": "[2]; restimulation with PMA/Ionomycin, immunostaining", "value": "decreased significantly"}, {"measurement": "Total TH2 responses", "setting": "[2]; restimulation with PMA/Ionomycin, immunostaining for IL-13 and IL-5", "value": "downregulates total TH2 responses"}]}]}
